The test system of experiment [1] is IL-4. The experiment in a line: Inflammation: reconstructed human epidermis/PBMC, MSD U-PLEX, IL-4. It is filed as cell-based. The settings on record: PBMCs (supernatant); RhE 5% SDS, then culture medium. As to the method: (§1) Potential immune modulatory effects were determined on reconstructed human epidermis (RHE) using a 3D Skin Modell (Cell systems). In the first step the skin patches are stimulated with specific controls and stimuli for a defined time period. In this context it had to be considered that different stimuli require different incubation times. The incubation with heat inactivated C.acnes (10^7 cells/approach) as well as the direct incubation with the test substances (AHE/FA/BIS) was performed for 16h at 37° C. The AHE test substances comprised AHE solutions, comprising either 1%, 2% or 5% AHE in PBS, generated as described in Example 8. The incubation with the positive control (5% SDS) was performed for 20 min (37° C.). After the primary stimulation step skin patches were washed (PBS 3×300 μl) and subjected to a regeneration phase (24h/37° C.) in presence of the indicated substances (CM/AHE/FA/CH/BIS). After this incubation phase the culture medium of each approach was isolated and used to stimulate human PBMCs. Hereby 100 μl of the RHE culture was added cultures of human PBMCs (1×10^6 cells in 300 μl culture medium) and incubated for additional 16 h (37° C.). After this incubation step, PBMCs were separated by centrifugation and the supernatant was saved for the MSD multiplexing platform. In parallel the cells of the RHE culture were subjected to cell lysis (1% SDS, 30 min/4° C. agitation). Cell extracts were saved for the MSD multiplexing platform.
(§2) Using the MSD U-PLEX it is possible to create an individualized multiplex assays for any combination of analytes. Hereby biotinylated capture reagents are coupled to U-PLEX Linkers. The U-PLEX Linkers then self-assemble onto unique spots on the U-PLEX plate. After analytes in the sample bind to the capture reagents, detection antibodies conjugated with electro-chemiluminescent labels (MSD GOLD SULFO-TAG) bind to the analytes to complete the sandwich immunoassay. Using this technology, the following markers were immobilized: […]

Experiment [2] concerns IL-13. The experiment in a line: Inflammation: reconstructed human epidermis/PBMC, MSD U-PLEX, IL-13. It is filed as cell-based. The settings on record: PBMCs (supernatant); RhE 5% SDS, then culture medium. How it is done:
as §1, §2

The subject of experiment [3] is IL-12p70. The experiment in a line: Inflammation: reconstructed human epidermis/PBMC, MSD U-PLEX, IL-12p70. It is filed as cell-based. The settings on record: PBMCs (supernatant); RhE 5% SDS, then culture medium. How it is done: as §1
(§3) Using the MSD U-PLEX it is possible to create an individualized multiplex assays for any combination of analytes. Hereby biotinylated capture reagents are coupled to U-PLEX Linkers. The U-PLEX Linkers then self-assemble onto unique spots on the U-PLEX plate. After analytes in the sample bind to the capture reagents, detection antibodies conjugated with electro-chemiluminescent labels (MSD GOLD SULFO-TAG) bind to the analytes to complete the sandwich immunoassay. Using this technology, the following markers were immobilized:
(§4) U-PLEX Human IFN-γ, U-PLEX Human IL-16, U-PLEX Human IL-2, U-PLEX Human IL-4, U-PLEX Human IL-5, U-PLEX Human IL-6, U-PLEX Human IL-8, U-PLEX Human IL-12p70, U-PLEX Human IL-13, U-PLEX Human IL-17A, U-PLEX Human IL-17F, U-PLEX Human IL-22, U-PLEX Human IL-23, U-PLEX Human TNF-α. U-PLEX Human TGF-β1. All steps were performed according to the supplier's protocol.
As described above, the Reconstructed human epidermis (RhE) was stimulated with the indicated substances and stimuli (Sample # Description, Tables 11-21) for 16 h. Upon this step the RhE was washed and in incubated in a second line with the indicated substances or culture medium. As controls, the RhE was treated in the first line with PBS and subsequently with culture medium. […]

The subject of experiment [4] is IFN-γ. The experiment in a line: Inflammation: reconstructed human epidermis/PBMC, MSD U-PLEX, IFN-γ. The settings on record: PBMCs (supernatant); RhE 5% SDS, then culture medium. It is filed as cell-based. As to the method: as §1, §3, §4
(§5) As described above, the Reconstructed human epidermis (RhE) was stimulated with the indicated substances and stimuli (Sample # Description, Tables 11-21) for 16 h. Upon this step the RhE was washed and in incubated in a second line with the indicated substances or culture medium. As controls, the RhE was treated in the first line with PBS and subsequently with culture medium. As further controls the PBMCs were treated with culture medium alone, with heat inactivated C. acnes and with pooled supernantant (SN) of the RhEs before stimulation. For Mesoscale analysis, the supernatant of the PBMC culture (PBMCs) was compared with a cell extract of the RhE prepared after the individual incubation steps (RhEs) and the supernatant of the RhEs after the stimulation steps (SN RhEs). RhE treated in the first and second line with culture medium (Rhe NC) can be used as negative control in all settings.

The test system of experiment [5] is IL-8. The experiment in a line: Inflammation: reconstructed human epidermis/PBMC, MSD U-PLEX, IL-8. The experiment is classed as cell-based. The conditions noted are these: RhE 5% SDS, then culture medium. As to the method: as §1, §3, §4, §5
The subject of experiment [6] is IL-5. The experiment in a line: Inflammation: reconstructed human epidermis/PBMC, MSD U-PLEX, IL-5. It is filed as cell-based. The settings on record: RhE 5% SDS, then culture medium. How it is done:
as §1, §3, §4, §5

For experiment [7], the system named is TNFα. The experiment in a line: Inflammation: reconstructed human epidermis/PBMC, MSD U-PLEX, TNFα. The settings on record: PBMCs (supernatant); RhE 5% SDS, then culture medium. It is filed as cell-based. As to the method: as §1, §3, §4, §5
For experiment [8], the system named is IL-6. The experiment in a line: Inflammation: reconstructed human epidermis/PBMC, MSD U-PLEX, IL-6. It is filed as cell-based. The settings on record: RhE 5% SDS, then culture medium. As to the method: as §1, §3, §4, §5
In experiment [9] the test system is IL-1β. The experiment in a line: Inflammation: reconstructed human epidermis/PBMC, MSD U-PLEX, IL-1β. It is filed as cell-based. The settings on record: PBMCs (supernatant); RhE 5% SDS, then culture medium. How it is done: as §1, §3, §4, §5
The subject of experiment [10] is human colorectal cells (CaCo2). The experiment in a line: Membrane barrier enhancement: TEER of CaCo2 3-dimensional culture. The settings on record: EGF. It is filed as cell-based. How it is done: To determine the effects of the test substances on the stability on the human gut barrier, human colorectal cells (CaCo2) were analysed in a 3-diemsional cell culture system. Cells (5×10^4/insert) were seeded on culture inserts of the system and cultivated in 24 well plates for 14 days with medium exchange in 3-day intervals and permanent monitoring of the TEER value. […] Subsequently, cells were washed and incubated with described 2nd line substances (i.e. AHE solutions, comprising either 1%, 2% or 5% AHE in PBS, generated as describe din Example 8) for 24 hours. After this step cells were washed and cell extracts were prepared by incubation with PBS/1% Triton X100. Cell extracts are ready for SDS-PAGE/Western Blotting.

The subject of experiment [11] is Keratin 16. The experiment in a line: Skin barrier: Western blot of Cytokeratin 16 in HaCat 3-dimensional culture. The experiment is classed as cell-based, human. How it is done:
FIG. 14: Western Blot Analysis with anti-Cytokeratin 16 was performed as described. The primary antibody (Keratin 16 (KRT16): Cusabio Technology CSB-PA012515LA01Hu) was used in a dilution of 1:500. After the primary incubation step binding of the primary antibody was visualized with an anti-rabbit-IG conjugated to horse raddish peroxidase. Detection of Cytokeratin-16 with an apparent MW of 51 kDa was visualized using the ECL Technology in combination with a BioRad Gel documentation system.
(§6) To determine the effects of the Alpine Heilmoor Extract on the stability of the membrane barrier, human Keratinocytes (HaCat) were analysed in a 3-dimensional cell culture system. Hereby, cells (5×10^4/insert) were seeded on culture inserts of the system and cultivated in 24 well plates for 14 days with medium exchange in 3-day intervals and permanent monitoring of the TEER value. Reaching a constant TEER value cells were stimulated with heat inactivated C. acnes (10^7 cells/well) for 16 h. Subsequently, cells were washed and incubated with described 2nd line substances (i.e. AHE solutions, comprising either 1%, 2% or 5% AHE in PBS, generated as described in Example 8) for 24 hours. […]
(§7) Effects of the indicated stimuli/second line substances were evaluated by determination of the expression levels of membrane markers Cytokeratin 10/Cytokeratin 16/Fillagrin and Ki67. […]

Experiment [12] deals with Paxillin. The experiment in a line: Western blot of Paxillin in scratched HaCat cells. It is filed as cell-based, human. The conditions noted are these: comparators: EGF; Fulvic Acid (1% per FIG. 10). How it is done:
FIG. 10: HaCat cells were cultured as described. 72h after mechanical disruption, cells were lysed (PBS/1% Triton X100, 30 min, 4° C.) and subsequently subjected to SDS-PAGE/Western Blotting. Cell adhesion markers were determined with specific antibodies directed towards cell adhesion markers E-Cadherin and Paxillin. Reactivities were normalized using an antibody directed against the housekeeping protein Actin.
FIG. 11: HaCat cells were cultured as described. 72h after mechanical disruption, cells were lysed (PBS/1% Triton X100, 30 min, 4° C.) and subsequently subjected to SDS-PAGE/Western Blotting. Cell adhesion markers were determined with specific antibodies directed towards cell adhesion markers E-Cadherin and Paxillin.
A human Keratinocyte cell line (HaCat) was cultivated in 6 well plates to reach a dense cell layer. Subsequently the monolayer was injured with a mechanical device leading to a cross formed scratch in the monolayer. […] The ingrowth of cells was monitored/documented for another 72 hours to the point where the cross formed injury of the monolayer was recovered with cells. […] Subsequently cell extracts were analysed by SDS-PAGE/Western Blotting using antibodies directed towards the […] markers E-Cadherin and Paxillin (FIG. 10 and FIG. 11). […]
(In general: In western blotting, separated proteins are transferred to a membrane and probed.)

In experiment [13] the test system is human Keratinocyte cell line (HaCat). The experiment in a line: Wound healing: scratch of HaCat keratinocyte monolayer, regeneration over 72 h. It is filed as cell-based. The conditions noted are these: EGF 10 ng/ml; within 72 hours. How it is done:
A human Keratinocyte cell line (HaCat) was cultivated in 6 well plates to reach a dense cell layer. Subsequently the monolayer was injured with a mechanical device leading to a cross formed scratch in the monolayer. Upon scratching cells were washed once with PBS and treated with the test substances outlined above as well as with appropriate controls. The ingrowth of cells was monitored/documented for another 72 hours to the point where the cross formed injury of the monolayer was recovered with cells. At that point cells were washed and harvested. Cell extracts were generated by treatment with PBS/1% Triton X100 (30 min on ice). Subsequently cell extracts were analysed by SDS-PAGE/Western Blotting using antibodies directed towards the […] markers E-Cadherin and Paxillin (FIG. 10 and FIG. 11).
Cells were treated with AHE solutions, comprising either 1% or 5% AHE in PBS (phosphate buffered saline). The dry extract was generated as described in Example 1, and then dissolved in PBS at 37° C. for 72 hours using a weight/volume ratio of 0.1 g/mL, 0.2 g/mL or 0.5 g/mL, respectively.
For comparison, cells were also treated with Fulvic Acid and Charcoal, EGF was used as positive control, Medium without active substance was used as negative control.

In experiment [14] the test system is Keratin 10. The experiment in a line: Skin barrier: Western blot of Cytokeratin 10 in HaCat 3-dimensional culture. The experiment is classed as cell-based, human. The settings on record: positive control EGF. How it is done: FIG. 13: Western Blot Analysis with anti-Cytokeratin 10 was performed as described. The primary antibody (Keratin 10 (KRT10): Cusabio Technology CSB-PA445987) was used in a dilution of 1:1000. After the primary incubation step binding of the primary antibody was visualized with an anti-rabbit-IG conjugated to horse raddish peroxidase. Detection of Cytokeratin-10 with an apparent MW of 58 kDa was visualized using the ECL Technology in combination with a BioRad Gel documentation system.
as §6, §7

`CCCCCCCCCCCCOS(=O)(=O)[O-].[Na+]` [Rhe PC, SDS]: the IL-4 concentration in experiment [1] amounted to 9.0 pg/mL. For the same compound, in experiment [2], the IL-13 concentration came to 220.6 pg/mL. Besides, the IL-12p70 concentration in experiment [3] was 63.0 pg/mL. Besides, the INF-y concentration in experiment [4] was 114.7 pg/mL. The IL-8 concentration amounted to 43111.6 pg/mL in experiment [5] (PBMCs (supernatant)), 33.5 pg/mL in experiment [5] (RhEs (cell extract)) and 77.2 pg/mL in experiment [5] (SN RhEs). The results for the IL-5 concentration in [6] (PBMCs (supernatant)) and in experiment [6] (SN RhEs) were 25.4 pg/mL and 1.0 pg/mL, respectively. For the same compound, the TNFα concentration in experiment [7] came to 24.0 pg/mL. The IL-6 concentration in [8] (PBMCs (supernatant)) worked out at 12909.3 pg/mL; in [8] (SN RhEs), 0.3 pg/mL. Moreover, the IL-1β concentration in [9] was found to be 1133 pg/mL.

As for “EGF: positive control (10 ng/ml in Example 8)”, the TEER value in experiment [10] (D15 (1 d after stimulation with IL1alpha/TNF-alpha)) is 4800 Ω/cm^2; in [10] (D15 (non stimulated controls)) it was 4000 Ω/cm^2; in experiment [10] (D17 (after regeneration phase with extracts: non stimulated controls)) it was 7200 Ω/cm^2; in experiment [10] (D17 (after regeneration phase with extracts: stimulated skin)) it was 9600 Ω/cm^2. The “Cytokeratin 16 specific band (51 kDa)” value in [11] (EGF) is on record as “detected”. Besides, the “anti-Cytokeratin 16 reactive protein complex at about 75 kDa” value in [11] (positive control EGF) is on record as “visible”. The “expression of cell adhesion molecule Paxillin” value in experiment [12] is “also observed”. The “regeneration of scratched keratinocyte monolayer” value in [13] is on record as “regenerated well”. Besides, in experiment [14], the “Cytokeratin 10 band (58 kDa)” value is reported as “induction”.

The values are drawn from patent US12496267B2, “Extract of organic humified materials” (priority 2019, dated 2025).
